This note sets out measurements from US9809574B2, “Isoindoline or isoquinoline compounds, a process for their preparation and pharmaceutical compositions containing them” (LES LABORATOIRES SERVIER, priority 2013, dated 2017).

The term IC50 denotes the concentration that inhibits the measured activity by half.

SMILES strings stand for the structures.

Assay [1] concerns the target Bcl-2 protein (histag-Bcl-2, UniProtKB P10415) (Homo sapiens (Human), UniProt P10415). As to the kind of experiment: Inhibition of Bcl-2 by the fluorescence polarisation technique. Type of assay: binding. To be noted: fluorescence polarisation test; incubation for 2 hours; read-out: IC50 (nM) Bcl-2 FP. The text has this:
For partial inhibitors, the percentage fluorescence polarisation inhibition for a given concentration of the test compound is indicated.
For orientation: Fluorescence polarisation rises when a labelled molecule tumbles more slowly, as on binding a larger partner.

Assay [2] concerns RS4; 11 leukaemia cell line. Nature of the assay: In vitro cytotoxicity, Microculture Tetrazolium Assay (MTT). Type of assay: cell-based. To be noted: Homo sapiens, 11 cells exposed for 48 hours. As to the method:
The cytotoxicity studies were carried out on the RS4; 11 leukaemia cell line and on H146 small Cell Lung Carcinoma cell line. The cells are distributed onto microplates and exposed to the test compounds for 48 hours. The cell viability is then quantified by a colorimetric assay, the Microculture Tetrazolium Assay (Cancer Res., 1987, 47, 939-942).

Bcl-2 protein, sequence (P10415 whole entry): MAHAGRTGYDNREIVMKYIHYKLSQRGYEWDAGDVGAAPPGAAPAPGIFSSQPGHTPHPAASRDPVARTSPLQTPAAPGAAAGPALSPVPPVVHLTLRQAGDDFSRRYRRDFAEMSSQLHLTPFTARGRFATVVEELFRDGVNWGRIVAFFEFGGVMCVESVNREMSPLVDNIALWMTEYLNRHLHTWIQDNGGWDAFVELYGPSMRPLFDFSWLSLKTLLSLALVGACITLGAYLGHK

On to `CCc1ccc(OC(=O)N2CCc3cc(-c4cc(C(=O)N(C)c5ccc(O)cc5)c5n4CCCC5)c(C(=O)N4Cc5ccccc5C[C@H]4CN4CCOCC4)cc3C2)cc1` [Example 126, 4-Ethylphenyl 6-{1-[(4-hydroxyphenyl)(methyl)carbamoyl]-5,6,7,8-tetrahydroindolizin-3-yl}-7-[(3S)-3-(morpholin-4-ylmethyl)-1,2,3,4-tetrahydroisoquinoline-2-carbonyl]-1,2,3,4-tetrahydroisoquinoline-2-carboxylate], for which the IC50 was found to be 5.9 nM in assay [1] and 5.2 nM in assay [2].
The corresponding values for `CN(C(=O)c1cc(-c2cc3c(cc2C(=O)N2Cc4ccccc4C[C@H]2CN2CCOCC2)CN(C(=O)Oc2ccc(C#N)cc2)CC3)n2c1CCCC2)c1ccc(O)cc1` [Example 127, 4-Cyanophenyl 6-{1-[(4-hydroxyphenyl)(methyl)carbamoyl]-5,6,7,8-tetrahydroindolizin-3-yl}-7-[(3S)-3-(morpholin-4-ylmethyl)-1,2,3,4-tetrahydroisoquinoline-2-carbonyl]-1,2,3,4-tetrahydroisoquinoline-2-carboxylate] are 3.3 nM and 6.4 nM.
For `COc1ccccc1OC(=O)N1CCc2cc(-c3cc(C(=O)N(C)c4ccc(O)cc4)c4n3CCCC4)c(C(=O)N3Cc4ccccc4C[C@H]3CN3CCOCC3)cc2C1` [Example 128, 2-Methoxyphenyl 6-{1-[(4-hydroxyphenyl)(methyl)carbamoyl]-5,6,7,8-tetrahydroindolizin-3-yl}-7-[(3S)-3-(morpholin-4-ylmethyl)-1,2,3,4-tetrahydroisoquinoline-2-carbonyl]-1,2,3,4-tetrahydroisoquinoline-2-carboxylate] the same measures were 3.5 nM and 8.2 nM.
Consider `C[C@@H]1Cc2ccccc2CN1C(=O)c1cc2c(cc1-c1cc(C(=O)N(C)c3ccc(O)cc3)c3n1CCCC3)CCN(C(=O)Cc1ccc(CN3CCOCC3)cc1)C2` [Example 129, N-(4-Hydroxyphenyl)-N-methyl-3-{7-[(3R)-3-methyl-1,2,3,4-tetrahydroisoquinoline-2-carbonyl]-2-{2-[4-(morpholin-4-ylmethyl)phenyl]acetyl}-1,2,3,4-tetrahydroisoquinolin-6-yl}-5,6,7,8-tetrahydroindolizine-1-carboxamide], for which the values for the IC50 in assay [1] and in assay [2] were 3.3 nM and 39 nM, respectively.
As to `Cc1c(C(=O)N(C)c2ccc(O)cc2)cc(-c2cc3c(cc2C(=O)N2Cc4ccccc4C[C@H]2CN2CCOCC2)CN(C(=O)CCc2ccccc2)CC3)n1C` [Example 130, N-(4-Hydroxyphenyl)-N,1,2-trimethyl-5-{7-[(3S)-3-(morpholin-4-ylmethyl)-1,2,3,4-tetrahydroisoquinoline-2-carbonyl]-2-(3-phenylpropanoyl)-1,2,3,4-tetrahydroisoquinolin-6-yl}-1H-pyrrole-3-carboxamide], the IC50 in assay [1] is 3.1 nM; in assay [2], 36 nM.
For `Cc1c(C(=O)N(C)c2ccc(O)cc2)cc(-c2cc3c(cc2C(=O)N2Cc4ccccc4C[C@H]2CN2CCOCC2)CN(C(=O)/C=C/c2ccccc2)CC3)n1C` [Example 131, N-(4-Hydroxyphenyl)-N,1,2-trimethyl-5-{7-[(3S)-3-(morpholin-4-ylmethyl)-1,2,3,4-tetrahydroisoquinoline-2-carbonyl]-2-[(2E)-3-phenylprop-2-enoyl]-1,2,3,4-tetrahydroisoquinolin-6-yl}-1H-pyrrole-3-carboxamide] the same measures were 4 nM and 11 nM.
For `Cc1c(C(=O)N(C)c2ccc(O)cc2)cc(-c2cc3c(cc2C(=O)N2Cc4ccccc4C[C@H]2CN2CCOCC2)CN(C(=O)CCC2CCCCC2)CC3)n1C` [Example 132, 5-[2-(3-Cyclohexylpropanoyl)-7-[(3S)-3-(morpholin-4-ylmethyl)-1,2,3,4-tetrahydroisoquinoline-2-carbonyl]-1,2,3,4-tetrahydroisoquinolin-6-yl]-N-(4-hydroxyphenyl)-N,1,2-trimethyl-1H-pyrrole-3-carboxamide] the same measures were 4.6 nM and 32 nM.
As to `C[C@@H]1Cc2ccccc2CN1C(=O)c1cc2c(cc1-c1cc(C(=O)N(c3ccccc3)c3ccc(O)cc3)c3n1CCCC3)CN(C(=O)Oc1ccccc1)C2` [Example 133, Phenyl 5-{1-[(4-hydroxyphenyl)(phenyl)carbamoyl]-5,6,7,8-tetrahydroindolizin-3-yl}-6-[(3R)-3-methyl-1,2,3,4-tetrahydroisoquinoline-2-carbonyl]-2,3-dihydro-1H-isoindole-2-carboxylate], the IC50 in assay [1] worked out at 7 nM; in assay [2] it was 8.2 nM.
For `C[C@@H]1Cc2ccccc2CN1C(=O)c1cc2c(cc1-c1cc(C(=O)N(c3ccccc3)c3ccc(O)cc3)c3n1CCCC3)CCN(C(=O)Cc1ccccc1)C2` [Example 134, N-(4-hydroxyphenyl)-3-{7-[(3R)-3-methyl-1,2,3,4-tetrahydroisoquinoline-2-carbonyl]-2-(2-phenylacetyl)-1,2,3,4-tetrahydroisoquinolin-6-yl}-N-phenyl-5,6,7,8-tetrahydroindolizine-1-carboxamide] the same measures were 4.3 nM and 2 nM.
The corresponding values for `COc1cccc(CCC(=O)N2CCc3cc(-c4cc(C(=O)N(C)c5ccc(O)cc5)c(C)n4C)c(C(=O)N4Cc5ccccc5C[C@H]4CN4CCOCC4)cc3C2)c1` [Example 135, N-(4-Hydroxyphenyl)-5-{2-[3-(3-methoxyphenyl)propanoyl]-7-[(3S)-3-(morpholin-4-ylmethyl)-1,2,3,4-tetrahydroisoquinoline-2-carbonyl]-1,2,3,4-tetrahydroisoquinolin-6-yl}-N,1,2-trimethyl-1H-pyrrole-3-carboxamide] are 8.4 nM and 99 nM.
`COc1cccc(/C=C/C(=O)N2CCc3cc(-c4cc(C(=O)N(C)c5ccc(O)cc5)c(C)n4C)c(C(=O)N4Cc5ccccc5C[C@H]4CN4CCOCC4)cc3C2)c1` [Example 136, N-(4-Hydroxyphenyl)-5-{2-[(2E)-3-(3-methoxyphenyl)prop-2-enoyl]-7-[(3S)-3-(morpholin-4-ylmethyl)-1,2,3,4-tetrahydroisoquinoline-2-carbonyl]-1,2,3,4-tetrahydroisoquinolin-6-yl}-N,1,2-trimethyl-1H-pyrrole-3-carboxamide]: the IC50 in assay [1] came out at 6.7 nM; in assay [2], 24 nM.
For `Cc1c(C(=O)N(C)c2ccc(O)cc2)cc(-c2cc3c(cc2C(=O)N2Cc4ccccc4C[C@H]2CN2CCOCC2)CN(C(=O)/C=C/c2ccc(Cl)c(Cl)c2)CC3)n1C` [Example 137, 5-{2-[(2E)-3-(3,4-dichlorophenyl)prop-2-enoyl]-7-[(3S)-3-(morpholin-4-ylmethyl)-1,2,3,4-tetrahydroisoquinoline-2-carbonyl]-1,2,3,4-tetrahydroisoquinolin-6-yl}-N-(4-hydroxyphenyl)-N,1,2-trimethyl-1H-pyrrole-3-carboxamide] the same measures were 9.4 nM and 47 nM.
As for `C[C@@H]1Cc2ccccc2CN1C(=O)c1cc2c(cc1-c1cc(C(=O)N(C)c3ccc(O)cc3)c3n1CCCC3)CCN(C(=O)CCc1ccc(NCCN(C)C)cc1)C2` [Example 138, 3-{2-[3-(4-{[2-(Dimethylamino)ethyl]amino}phenyl)propanoyl]-7-[(3R)-3-methyl-1,2,3,4-tetrahydroisoquinoline-2-carbonyl]-1,2,3,4-tetrahydroisoquinolin-6-yl}-N-(4-hydroxyphenyl)-N-methyl-5,6,7,8-tetrahydroindolizine-1-carboxamide], the IC50 was found to be 12 nM in assay [1] and 114 nM in assay [2].
For `Cc1ccc(OC(=O)N2CCc3cc(-c4cc(C(=O)N(C)c5ccc(O)cc5)c(C)n4C)c(C(=O)N4Cc5ccccc5C[C@H]4CN4CCOCC4)cc3C2)cc1` [Example 139, 4-Methylphenyl 6-{4-[(4-hydroxyphenyl)(methyl)carbamoyl]-1,5-dimethyl-1H-pyrrol-2-yl}-7-[(3S)-3-(morpholin-4-ylmethyl)-1,2,3,4-tetrahydroisoquinoline-2-carbonyl]-1,2,3,4-tetrahydroisoquinoline-2-carboxylate], the IC50 in assay [1] is 5.1 nM; in assay [2], 0.84 nM.
The corresponding values for `Cc1c(C(=O)N(C)c2ccc(O)cc2)cc(-c2cc3c(cc2C(=O)N2Cc4ccccc4C[C@H]2CN2CCOCC2)CN(C(=O)Oc2ccc(Cl)cc2)CC3)n1C` [Example 140, 4-Chlorophenyl 6-{4-[(4-hydroxyphenyl)(methyl)carbamoyl]-1,5-dimethyl-1H-pyrrol-2-yl}-7-[(3S)-3-(morpholin-4-ylmethyl)-1,2,3,4-tetrahydroisoquinoline-2-carbonyl]-1,2,3,4-tetrahydroisoquinoline-2-carboxylate] are 6.6 nM and 4 nM.
The corresponding values for `CN(C(=O)c1cc(-c2cc3c(cc2C(=O)N2Cc4ccccc4C[C@H]2CN2CCOCC2)CN(C(=O)Oc2ccc(C(N)=O)cc2)CC3)n2c1CCCC2)c1ccc(O)cc1` [Example 141, 4-Carbamoylphenyl 6-{1-[(4-hydroxyphenyl)(methyl)carbamoyl]-5,6,7,8-tetrahydroindolizin-3-yl}-7-[(3S)-3-(morpholin-4-ylmethyl)-1,2,3,4-tetrahydroisoquinoline-2-carbonyl]-1,2,3,4-tetrahydroisoquinoline-2-carboxylate] are 5.9 nM and 82 nM.
As for `CN(C)C(=O)c1ccc(OC(=O)N2CCc3cc(-c4cc(C(=O)N(C)c5ccc(O)cc5)c5n4CCCC5)c(C(=O)N4Cc5ccccc5C[C@H]4CN4CCOCC4)cc3C2)cc1` [Example 142, 4-(Dimethylcarbamoyl)phenyl 6-{1-[(4-hydroxyphenyl)(methyl)carbamoyl]-5,6,7,8-tetrahydroindolizin-3-yl}-7-[(3S)-3-(morpholin-4-ylmethyl)-1,2,3,4-tetrahydroisoquinoline-2-carbonyl]-1,2,3,4-tetrahydroisoquinoline-2-carboxylate], the results for the IC50 in assay [1] and in assay [2] were 5.5 nM and 53 nM, respectively.
